Target: T1, Dimer of Gag-Pol polyprotein [489-587] (Human immunodeficiency virus 1, UniProt P12497)
T1 construct: 489-587
Experiment: Protease Inhibition Assay
Description: The inhibitory activities of the compounds toward HIV-1 PR were determined by sodium dodecyl sulfate-polyacrylamide gel electrophoresis (SDS-PAGE) assay. The IC50 values of active compounds were determined using the partially purified protease and the synthetic substrate Ac-Ser-Gln-AsnTyr-Pro-Ile-Val-NH2.

Structure (SMILES) | IC50
Cc1cc(O)c(C)c(C(=O)N[C@@H](Cc2ccccc2)[C@H](O)C(=O)N2C[C@@H](Cl)C[C@H]2C(=O)NC(C)(C)C)c1 [(2S,4S)-N-tert-butyl-4-chloro-1-[(2S,3S)-2-hydroxy-3-[(3-hydroxy-2,5-dimethylphenyl)formamido]-4-phenylbutanoyl]pyrrolidine-2-carboxamide] | 1.3 nM
Cc1ccccc1C[C@H](NC(=O)c1c(C)ccc(O)c1C)[C@H](O)C(=O)N1C[C@@H](Cl)C[C@H]1C(=O)NC(C)(C)C [(2S,4S)-N-tert-butyl-4-chloro-1-[(2S,3S)-2-hydroxy-3-[(3-hydroxy-2,6-dimethylphenyl)formamido]-4-(2-methylphenyl)butanoyl]pyrrolidine-2-carboxamide] | 34.3 nM
Cc1ccc(O)c(C)c1C(=O)N[C@@H](Cc1ccc2ccccc2c1)[C@H](O)C(=O)N1C[C@@H](Cl)C[C@H]1C(=O)NC(C)(C)C [(2S,4S)-N-tert-butyl-4-chloro-1-[(2S,3S)-2-hydroxy-3-[(3-hydroxy-2,6-dimethylphenyl)formamido]-4-(naphthalen-2-yl)butanoyl]pyrrolidine-2-carboxamide] | 2.8 nM
Cc1ccc(O)c(C)c1C(=O)N[C@@H](Cc1cccc(C(F)(F)F)c1)[C@H](O)C(=O)N1C[C@@H](Cl)C[C@H]1C(=O)NC(C)(C)C [(2S,4S)-N-tert-butyl-4-chloro-1-[(2S,3S)-2-hydroxy-3-[(3-hydroxy-2,6-dimethylphenyl)formamido]-4-[3-(trifluoromethyl)phenyl]butanoyl]pyrrolidine-2-carboxamide] | 4.6 nM
Cc1ccccc1C[C@H](NC(=O)c1cccc(O)c1C)[C@H](O)C(=O)N1C[C@@H](Cl)C[C@H]1C(=O)NC(C)(C)C [(2S,4S)-N-tert-butyl-4-chloro-1-[(2S,3S)-2-hydroxy-3-[(3-hydroxy-2-methylphenyl)formamido]-4-(2-methylphenyl)butanoyl]pyrrolidine-2-carboxamide] | 4.5 nM
Cc1c(O)cccc1C(=O)N[C@@H](Cc1ccc(O)cc1)[C@H](O)C(=O)N1C[C@@H](Cl)C[C@H]1C(=O)NC(C)(C)C [(2S,4S)-N-tert-butyl-4-chloro-1-[(2S,3S)-2-hydroxy-3-[(3-hydroxy-2-methylphenyl)formamido]-4-(4-hydroxyphenyl)butanoyl]pyrrolidine-2-carboxamide] | 1.3 nM
Cc1c(O)cccc1C(=O)N[C@@H](Cc1ccc(C(F)(F)F)cc1)[C@H](O)C(=O)N1C[C@@H](Cl)C[C@H]1C(=O)NC(C)(C)C [(2S,4S)-N-tert-butyl-4-chloro-1-[(2S,3S)-2-hydroxy-3-[(3-hydroxy-2-methylphenyl)formamido]-4-[4-(trifluoromethyl)phenyl]butanoyl]pyrrolidine-2-carboxamide] | 0.6 nM
Cc1c(O)cc(F)cc1C(=O)N[C@@H](Cc1ccc2ccccc2c1)[C@H](O)C(=O)N1C[C@@H](Cl)C[C@H]1C(=O)NC(C)(C)C [(2S,4S)-N-tert-butyl-4-chloro-1-[(2S,3S)-3-[(5-fluoro-3-hydroxy-2-methylphenyl)formamido]-2-hydroxy-4-(naphthalen-2-yl)butanoyl]pyrrolidine-2-carboxamide] | 1.2 nM
Cc1c(O)cccc1C(=O)N[C@@H](Cc1ccc(F)cc1F)[C@H](O)C(=O)N1C[C@@H](Cl)C[C@H]1C(=O)NC(C)(C)C [(2S,4S)-N-tert-butyl-4-chloro-1-[(2S,3S)-4-(2,4-difluorophenyl)-2-hydroxy-3-[(3-hydroxy-2-methylphenyl)formamido]butanoyl]pyrrolidine-2-carboxamide] | 1.6 nM
Cc1c(O)cccc1C(=O)N[C@@H](Cc1ccccc1F)[C@H](O)C(=O)N1C[C@@H](Cl)C[C@H]1C(=O)NC(C)(C)C [(2S,4S)-N-tert-butyl-4-chloro-1-[(2S,3S)-4-(2-fluorophenyl)-2-hydroxy-3-[(3-hydroxy-2-methylphenyl)formamido]butanoyl]pyrrolidine-2-carboxamide] | 0.7 nM
Cc1c(O)cccc1C(=O)N[C@@H](Cc1ccc(F)c(F)c1)[C@H](O)C(=O)N1C[C@@H](Cl)C[C@H]1C(=O)NC(C)(C)C [(2S,4S)-N-tert-butyl-4-chloro-1-[(2S,3S)-4-(3,4-difluorophenyl)-2-hydroxy-3-[(3-hydroxy-2-methylphenyl)formamido]butanoyl]pyrrolidine-2-carboxamide] | 0.8 nM
Cc1ccc(C[C@H](NC(=O)c2cccc(O)c2C)[C@H](O)C(=O)N2C[C@@H](Cl)C[C@H]2C(=O)NC(C)(C)C)cc1C [(2S,4S)-N-tert-butyl-4-chloro-1-[(2S,3S)-4-(3,4-dimethylphenyl)-2-hydroxy-3-[(3-hydroxy-2-methylphenyl)formamido]butanoyl]pyrrolidine-2-carboxamide] | 1.2 nM
Cc1c(O)cccc1C(=O)N[C@@H](Cc1cccc(F)c1)[C@H](O)C(=O)N1C[C@@H](Cl)C[C@H]1C(=O)NC(C)(C)C [(2S,4S)-N-tert-butyl-4-chloro-1-[(2S,3S)-4-(3-fluorophenyl)-2-hydroxy-3-[(3-hydroxy-2-methylphenyl)formamido]butanoyl]pyrrolidine-2-carboxamide] | 0.6 nM
Cc1c(O)cccc1C(=O)N[C@@H](Cc1ccc(F)cc1)[C@H](O)C(=O)N1C[C@@H](Cl)C[C@H]1C(=O)NC(C)(C)C [(2S,4S)-N-tert-butyl-4-chloro-1-[(2S,3S)-4-(4-fluorophenyl)-2-hydroxy-3-[(3-hydroxy-2-methylphenyl)formamido]butanoyl]pyrrolidine-2-carboxamide] | 0.9 nM
Cc1cccc(C[C@H](NC(=O)c2ccc(C)c(O)c2C)[C@H](O)C(=O)N2C[C@@H](Cl)C[C@H]2C(=O)NC(C)(C)C)c1 [(3-Hydroxy-2,4-dimethylbenzoyl)-(2(S)-hydroxy-3(S)-amino-4-m-tolylbutanoyl)-4(S)-Cl-Pro-NH-t-Bu] | 2.5 nM
Cc1cc(O)c(C)c(C(=O)N[C@@H](Cc2cc(F)cc(F)c2)[C@H](O)C(=O)N2C[C@@H](Cl)C[C@H]2C(=O)NC(C)(C)C)c1 [(3-Hydroxy-2,5-dimethylbenzoyl)-{2(S)-hydroxy-3(S)-amino-4-(3,5-difluoro)-phenylbutanoyl}-4(S)-Cl-Pro-NH-t-Bu] | 1.2 nM
Cc1cc(O)c(C)c(C(=O)N[C@@H](Cc2ccc(-c3ccccc3)cc2)[C@H](O)C(=O)N2C[C@@H](Cl)C[C@H]2C(=O)NC(C)(C)C)c1 [(3-Hydroxy-2,5-dimethylbenzoyl)-{2(S)-hydroxy-3(S)-amino-4-(4-phenyl)-phenylbutanoyl}-4(S)-Cl-Pro-NH-t-Bu] | 1.3 nM
Cc1cccc(C[C@H](NC(=O)c2cccc(O)c2C)[C@H](O)C(=O)N2C[C@@H](Cl)C[C@H]2C(=O)NC(C)(C)C)c1 [(3-Hydroxy-2-methylbenzoyl)-(2(S)-hydroxy-3(S)-amino-4-m-tolylbutanoyl)-4(S)-Cl-Pro-NH-t-Bu] | 0.6 nM
Cc1ccc(C[C@H](NC(=O)c2cccc(O)c2C)[C@H](O)C(=O)N2C[C@@H](Cl)C[C@H]2C(=O)NC(C)(C)C)cc1 [(3-Hydroxy-2-methylbenzoyl)-(2(S)-hydroxy-3(S)-amino-4-p-tolylbutanoyl)-4(S)-Cl-Pro-NH-t-Bu] | 0.9 nM
Cc1c(O)cccc1C(=O)N[C@@H](CCc1ccccc1)[C@H](O)C(=O)N1C[C@@H](Cl)C[C@H]1C(=O)NC(C)(C)C [(3-Hydroxy-2-methylbenzoyl)-(2(S)-hydroxy-3(S)-amino-5-phenylpentanoyl)-4(S)-Cl-Pro-NH-t-Bu] | 1.4 nM
